In US5965527A, “Cyclosporin compounds, their preparation and the pharmaceutical compositions which contain them” (Rhone-Poulenc Rorer, S.A., priority 1996, dated 1999):

System: retroviruses
Settings: combined with AZT, ddl, Saquinavir and/or ribavirin

[(R)-2-(N,N-Dimethylamino)ethylthio-Sar]^3 -cyclosporin A [Example 2]
effect in combination: particularly advantageous effect
